Source: article PMC5240934, “Molecular Mechanism of Disease-Associated Mutations in the Pre-M1 Helix of NMDA Receptors and Potential Rescue Pharmacology” (PLoS Genetics, 2017)
Like-named read-outs stand apart in the source and are kept apart here.

Key:
Assay in all cases: two-electrode voltage clamp, Xenopus oocytes
Format in all cases: cell-based
human GluN1/GluN2A [1] = biological target: T1, human GluN1/GluN2A (Homo sapiens, UniProt Q05586+Q12879)
T1 construct: gene GRIN1; full open reading frames in pCI-neo, cRNA in Xenopus laevis oocytes; di-heteromeric tetramer
T1 sequence (Q12879 23-1464, other chains not shown): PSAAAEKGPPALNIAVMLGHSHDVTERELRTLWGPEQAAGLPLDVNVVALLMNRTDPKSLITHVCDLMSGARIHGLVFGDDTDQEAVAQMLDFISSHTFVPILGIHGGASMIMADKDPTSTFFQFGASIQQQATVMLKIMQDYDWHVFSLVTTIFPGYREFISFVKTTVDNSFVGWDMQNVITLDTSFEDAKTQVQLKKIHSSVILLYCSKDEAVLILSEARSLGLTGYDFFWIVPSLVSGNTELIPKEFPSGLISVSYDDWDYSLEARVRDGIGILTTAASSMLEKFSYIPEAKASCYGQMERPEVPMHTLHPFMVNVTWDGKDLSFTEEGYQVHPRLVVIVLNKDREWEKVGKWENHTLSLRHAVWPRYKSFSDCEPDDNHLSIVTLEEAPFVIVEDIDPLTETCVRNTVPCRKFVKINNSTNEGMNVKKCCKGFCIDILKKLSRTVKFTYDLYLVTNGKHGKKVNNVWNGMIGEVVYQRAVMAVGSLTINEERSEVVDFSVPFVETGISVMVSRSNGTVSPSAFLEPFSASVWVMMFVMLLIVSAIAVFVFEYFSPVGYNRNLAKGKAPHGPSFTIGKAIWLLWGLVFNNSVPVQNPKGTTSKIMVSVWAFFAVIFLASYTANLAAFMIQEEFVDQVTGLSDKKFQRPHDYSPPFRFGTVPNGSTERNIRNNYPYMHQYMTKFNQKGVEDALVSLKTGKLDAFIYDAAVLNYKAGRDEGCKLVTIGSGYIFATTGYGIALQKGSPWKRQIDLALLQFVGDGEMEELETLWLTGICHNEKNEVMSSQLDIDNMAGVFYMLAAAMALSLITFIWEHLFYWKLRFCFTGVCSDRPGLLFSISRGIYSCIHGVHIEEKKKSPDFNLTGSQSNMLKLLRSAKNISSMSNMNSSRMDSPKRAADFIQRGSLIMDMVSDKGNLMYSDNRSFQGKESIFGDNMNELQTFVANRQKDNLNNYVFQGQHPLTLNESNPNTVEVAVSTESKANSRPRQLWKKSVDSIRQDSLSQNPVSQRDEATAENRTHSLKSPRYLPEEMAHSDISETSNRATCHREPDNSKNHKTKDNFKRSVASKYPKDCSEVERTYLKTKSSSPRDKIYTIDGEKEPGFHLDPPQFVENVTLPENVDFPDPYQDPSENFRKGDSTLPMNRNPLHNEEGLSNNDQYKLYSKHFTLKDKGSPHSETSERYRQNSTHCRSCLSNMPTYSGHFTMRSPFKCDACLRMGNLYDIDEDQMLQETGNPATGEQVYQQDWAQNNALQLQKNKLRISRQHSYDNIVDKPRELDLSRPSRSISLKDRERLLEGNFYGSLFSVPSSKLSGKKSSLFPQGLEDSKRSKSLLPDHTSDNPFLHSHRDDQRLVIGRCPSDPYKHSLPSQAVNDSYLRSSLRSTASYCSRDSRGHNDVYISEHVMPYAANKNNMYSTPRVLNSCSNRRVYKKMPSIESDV
Text: (§1) two-electrode voltage clamp, Xenopus oocytes on human GluN1/GluN2A

human GluN1/GluN2A [2] = biological target: T2, human GluN1/GluN2A (Homo sapiens, UniProt Q05586+Q12879, Q12879:P552R)
T2 construct: gene GRIN1; full open reading frames in pCI-neo, cRNA in Xenopus laevis oocytes; di-heteromeric tetramer
T2 sequence (Q12879 23-1464 P552R, other chains not shown): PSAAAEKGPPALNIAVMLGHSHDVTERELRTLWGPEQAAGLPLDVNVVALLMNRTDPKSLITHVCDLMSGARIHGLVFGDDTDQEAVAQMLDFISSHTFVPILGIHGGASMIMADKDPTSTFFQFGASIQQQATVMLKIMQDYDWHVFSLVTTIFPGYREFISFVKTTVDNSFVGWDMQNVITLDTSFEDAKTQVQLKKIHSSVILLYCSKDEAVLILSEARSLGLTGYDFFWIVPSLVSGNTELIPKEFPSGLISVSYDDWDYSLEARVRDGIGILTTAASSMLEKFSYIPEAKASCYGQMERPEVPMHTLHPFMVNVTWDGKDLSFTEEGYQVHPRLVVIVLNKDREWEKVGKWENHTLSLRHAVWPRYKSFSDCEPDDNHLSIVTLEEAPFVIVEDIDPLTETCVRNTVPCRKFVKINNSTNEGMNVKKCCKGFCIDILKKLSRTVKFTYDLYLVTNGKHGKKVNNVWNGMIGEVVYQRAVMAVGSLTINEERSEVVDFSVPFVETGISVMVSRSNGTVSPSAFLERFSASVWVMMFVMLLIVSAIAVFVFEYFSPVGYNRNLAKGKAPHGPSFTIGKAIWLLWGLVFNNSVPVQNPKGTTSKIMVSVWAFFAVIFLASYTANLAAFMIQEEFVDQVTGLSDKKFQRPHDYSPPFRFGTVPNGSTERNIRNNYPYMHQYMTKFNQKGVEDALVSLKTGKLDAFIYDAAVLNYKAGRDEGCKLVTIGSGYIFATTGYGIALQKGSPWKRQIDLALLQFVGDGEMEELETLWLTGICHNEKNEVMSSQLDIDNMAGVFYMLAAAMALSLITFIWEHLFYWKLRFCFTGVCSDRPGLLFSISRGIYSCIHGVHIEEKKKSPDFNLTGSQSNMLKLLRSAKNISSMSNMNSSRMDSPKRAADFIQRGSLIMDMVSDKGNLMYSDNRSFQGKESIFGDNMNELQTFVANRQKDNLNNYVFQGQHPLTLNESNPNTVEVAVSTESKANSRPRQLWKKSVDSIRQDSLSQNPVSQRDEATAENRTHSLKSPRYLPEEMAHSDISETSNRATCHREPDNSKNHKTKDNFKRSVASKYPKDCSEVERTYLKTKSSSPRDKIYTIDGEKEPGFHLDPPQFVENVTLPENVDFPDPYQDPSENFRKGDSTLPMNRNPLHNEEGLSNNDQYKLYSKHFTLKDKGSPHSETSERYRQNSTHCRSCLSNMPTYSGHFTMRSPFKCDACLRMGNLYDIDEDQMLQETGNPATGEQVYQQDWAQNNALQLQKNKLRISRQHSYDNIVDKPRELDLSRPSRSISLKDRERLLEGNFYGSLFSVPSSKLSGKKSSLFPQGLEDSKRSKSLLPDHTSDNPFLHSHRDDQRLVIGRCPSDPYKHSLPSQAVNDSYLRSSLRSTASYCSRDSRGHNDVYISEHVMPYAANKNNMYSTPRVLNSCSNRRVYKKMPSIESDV
Text: as §1

rat GluN1/GluN2D = biological target: T3, rat GluN1/GluN2D (Rattus norvegicus, UniProt P35439+Q62645)
T3 construct: gene Grin1; full-length subunits in pCI-neo, cRNA in Xenopus laevis oocytes; di-heteromeric tetramer
T3 sequence (Q62645 28-1323, other chains not shown): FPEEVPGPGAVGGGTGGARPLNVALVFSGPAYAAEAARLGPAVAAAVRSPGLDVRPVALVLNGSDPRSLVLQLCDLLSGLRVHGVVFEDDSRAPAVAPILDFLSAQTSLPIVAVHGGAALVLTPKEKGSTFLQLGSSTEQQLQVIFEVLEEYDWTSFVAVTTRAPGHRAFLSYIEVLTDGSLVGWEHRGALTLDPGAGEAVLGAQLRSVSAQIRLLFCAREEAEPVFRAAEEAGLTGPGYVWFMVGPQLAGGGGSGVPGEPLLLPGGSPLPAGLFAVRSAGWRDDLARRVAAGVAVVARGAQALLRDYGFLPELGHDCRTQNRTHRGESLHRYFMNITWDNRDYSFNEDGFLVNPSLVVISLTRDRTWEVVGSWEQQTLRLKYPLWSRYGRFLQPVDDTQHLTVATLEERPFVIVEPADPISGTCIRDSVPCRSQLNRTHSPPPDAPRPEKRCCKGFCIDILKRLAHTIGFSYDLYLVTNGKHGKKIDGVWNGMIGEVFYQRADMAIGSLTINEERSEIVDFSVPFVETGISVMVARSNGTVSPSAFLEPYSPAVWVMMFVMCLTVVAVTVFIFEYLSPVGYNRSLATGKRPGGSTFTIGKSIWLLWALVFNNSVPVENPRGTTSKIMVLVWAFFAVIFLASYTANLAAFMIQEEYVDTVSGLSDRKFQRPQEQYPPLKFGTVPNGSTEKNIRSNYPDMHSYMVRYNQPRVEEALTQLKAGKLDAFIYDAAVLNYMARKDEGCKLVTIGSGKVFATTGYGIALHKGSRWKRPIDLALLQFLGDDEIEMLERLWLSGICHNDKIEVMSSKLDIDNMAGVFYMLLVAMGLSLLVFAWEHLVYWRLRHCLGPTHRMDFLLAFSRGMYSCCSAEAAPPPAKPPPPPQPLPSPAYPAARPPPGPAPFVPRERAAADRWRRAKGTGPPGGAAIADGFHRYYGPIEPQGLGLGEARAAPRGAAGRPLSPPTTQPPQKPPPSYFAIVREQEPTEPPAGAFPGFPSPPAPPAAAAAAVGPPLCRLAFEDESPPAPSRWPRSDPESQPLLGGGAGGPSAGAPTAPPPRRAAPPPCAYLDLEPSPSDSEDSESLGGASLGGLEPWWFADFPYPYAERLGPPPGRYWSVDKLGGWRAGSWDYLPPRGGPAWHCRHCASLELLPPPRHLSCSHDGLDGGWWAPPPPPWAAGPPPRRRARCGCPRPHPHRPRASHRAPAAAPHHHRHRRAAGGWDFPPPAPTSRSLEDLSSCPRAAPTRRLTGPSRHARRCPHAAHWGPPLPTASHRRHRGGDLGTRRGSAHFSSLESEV
Text: two-electrode voltage clamp, Xenopus oocytes on rat GluN1/GluN2D

human GluN1/GluN2B [3] = biological target: T4, human GluN1/GluN2B (Homo sapiens, UniProt Q05586+Q13224, Q05586:D552E)
T4 construct: gene GRIN1; full open reading frames in pCI-neo, cRNA in Xenopus laevis oocytes; di-heteromeric tetramer
Text: (§2) two-electrode voltage clamp, Xenopus oocytes on human GluN1/GluN2B

human GluN1/GluN2B [4] = biological target: T5, human GluN1/GluN2B (Homo sapiens, UniProt Q05586+Q13224, Q05586:P557R)
T5 construct: gene GRIN1; full open reading frames in pCI-neo, cRNA in Xenopus laevis oocytes; di-heteromeric tetramer
Text: as §2

human GluN1/GluN2B [5] = biological target: T6, human GluN1/GluN2B (Homo sapiens, UniProt Q05586+Q13224, Q13224:P553R)
T6 construct: gene GRIN1; full open reading frames in pCI-neo, cRNA in Xenopus laevis oocytes; di-heteromeric tetramer
Text: as §2

human GluN1/GluN2A [6] = biological target: T7, human GluN1/GluN2A (Homo sapiens, UniProt Q05586+Q12879, Q05586:D552E)
T7 construct: gene GRIN1; full open reading frames in pCI-neo, cRNA in Xenopus laevis oocytes; di-heteromeric tetramer
Text: as §1

human GluN1/GluN2A [7] = biological target: T8, human GluN1/GluN2A (Homo sapiens, UniProt Q05586+Q12879, Q05586:P557R)
T8 construct: gene GRIN1; full open reading frames in pCI-neo, cRNA in Xenopus laevis oocytes; di-heteromeric tetramer
Text: as §1

human GluN1/GluN2A [8] = biological target: T9, human GluN1/GluN2A (Homo sapiens, UniProt Q05586+Q12879, Q12879:A548T)
T9 construct: gene GRIN1; full open reading frames in pCI-neo, cRNA in Xenopus laevis oocytes; di-heteromeric tetramer
Text: as §1

[9] = read-out: IC50 (n; max inhibition) / GluN2A-P552R

SMILES: NC12CC3CC(CC(C3)C1)C2 [Amantadine]
- IC50 (human GluN1/GluN2A [1]; read-out: IC50 (n; max inhibition) / GluN2A-WT): 126000 ± 17000 nM
- IC50 (human GluN1/GluN2A [2]; [9]): 86000 ± 22000 nM

SMILES: COc1ccc2c(c1)[C@]13CCCC[C@@H]1[C@H](C2)N(C)CC3 [Dextromethorphan]
- IC50 (human GluN1/GluN2A [1]; channel blocker, -40 mV, pH 7.4, no Mg2+, 23 °C, read-out: IC50 (n; max inhibition) / GluN2A-WT): 18000 ± 2900 nM
- IC50 (human GluN1/GluN2A [2]; [9]): 15000 ± 4600 nM

SMILES: N[C@@H](CCC(=O)O)C(=O)O [Glutamate]
- EC50 (rat GluN1/GluN2D): 400 ± 70 nM

SMILES: NCC(=O)O [Glycine]
- EC50 (human GluN1/GluN2B [3]): 660 ± 70 nM
- EC50 (human GluN1/GluN2B [4]): 70 ± 10 nM
- EC50 (human GluN1/GluN2B [5]): 50 ± 10 nM
- EC50 (human GluN1/GluN2A [1]): 1400 ± 140 nM
- EC50 (human GluN1/GluN2A [6]): 3700 ± 320 nM
- EC50 (human GluN1/GluN2A [7]): 180 ± 20 nM
- EC50 (human GluN1/GluN2A [8]): 2400 ± 90 nM
- EC50 (human GluN1/GluN2A [2]; read-out: Di-heteromeric NMDA Receptors / GluN2A-P552R): 60 ± 10 nM

SMILES: CNC1(c2ccccc2Cl)CCCCC1=O (stereo not drawn) [Ketamine]
- IC50 (human GluN1/GluN2A [1]): 4700 ± 800 nM
- IC50 (human GluN1/GluN2A [2]): 1300 ± 200 nM
